From patent US10376520B2, “Methods for the treatment of cardiovascular disorders” (Galapagos NV, priority 2015, dated 2019)

System: RA patients
Experiment: LDL determination, Study 2 (RA patients, monotherapy)
Format: in vivo, human
Details: for [LDL] Mean CFB / [LDL] Median CFB: Study 2 12 weeks results
Source text: Randomized, double-blind, placebo-controlled, multicenter, phase IIb dose finding study of Compound 1 (dosed as a [Compound 1:HCl:3H2O]) administered for 24 weeks as monotherapy to subjects with moderately to severely active rheumatoid arthritis who have an inadequate response to methotrexate alone
Double-blind, placebo-controlled, monotherapy study in subjects with moderately to severely active RA who have an inadequate response to methotrexate (MTX) (oral or parenteral).
280 subjects randomized to one of 3 doses of Compound 1 (dosed as a [Compound 1:HCl:3H2O]) or to placebo, given once daily (q.d.).
Twelve weeks of treatment with Compound 1 (dosed as a [Compound 1:HCl:3H2O]) at 50 mg, 100 mg, or 200 mg q.d.; or placebo. At Week 12, all subjects on placebo and the subjects on the 50 mg dose who have not achieved 20% improvement in swollen joint count (SJC66) and tender joint count (TJC68) will be assigned to 100 mg q.d. in a blinded fashion and will continue treatment until Week 24. Subjects in the other groups will maintain their randomized treatment until Week 24.
The determination of [LDL]-cholesterol is made using an automated method taking advantage of the selective micellary solubilization of [LDL]-cholesterol by a nonionic detergent and the interaction of a sugar compound and lipoproteins (VLDL and chylomicrons).
When a detergent is included in the enzymatic method for cholesterol determination (cholesterol esterase, cholesterol oxidase coupling reaction), the relative reactivities of cholesterol in the lipoprotein fractions increase in this order: [HDL]<chylomicrons <VLDL <[LDL]. In the presence of Mg^2+, a sugar compound markedly reduces the enzymatic reaction of the cholesterol measurement in VLDL and chylomicrons. The combination of a sugar compound with detergent enables the selective determination of [LDL]-cholesterol in serum. (Friedewald et al., 1972; Rifai et al., 1992)
Homogeneous enzymatic colorimetric assay.
In the presence of peroxidase, the hydrogen peroxide generated reacts with 4-aminoantipyrine and Sodium N-(2-hydroxy-3-sulfopropyl)-3,5-dimethoxyaniline (HSDA) to form a purple-blue dye.
The color intensity of this dye is directly proportional to the cholesterol concentration and is measured photometrically.
Human serum and plasma samples [LDL] determination was done on a Roche/Hitachi Cobas c 701/702 system which automatically calculate the analyte concentration of each sample. Samples containing precipitates are centrifuged before performing the assay.

[1] = 50 mg q.d. non responders switching to 100 mg q.d. at week 12, week 1
[2] = 50 mg q.d. non responders switching to 100 mg q.d. at week 12, week 2
[3] = 50 mg q.d. non responders switching to 100 mg q.d. at week 12, week 4
[4] = 50 mg q.d. non responders switching to 100 mg q.d. at week 12, week 8
[5] = 50 mg q.d. non responders switching to 100 mg q.d. at week 12, week 12

O=C(Nc1nc2cccc(-c3ccc(CN4CCS(=O)(=O)CC4)cc3)n2n1)C1CC1 [Compound 1, cyclopropanecarboxylic acid {5-[4-(1,1-dioxo-thiomorpholin-4-ylmethyl)-phenyl]-[1,2,4]triazolo[1,5-a]pyridin-2yl}-amide]
[LDL] Mean percentage CFB - 24 weeks results [1]: −0.30% | [LDL] Median percentage CFB - 24 weeks results [1]: 2.72% | [LDL] Mean percentage CFB - 24 weeks results [2]: 1.96% | [LDL] Median percentage CFB - 24 weeks results [2]: −0.66% | [LDL] Mean percentage CFB - 24 weeks results [3]: 6.21% | [LDL] Median percentage CFB - 24 weeks results [3]: 1.36% | [LDL] Mean percentage CFB - 24 weeks results [4]: 4.76% | [LDL] Median percentage CFB - 24 weeks results [4]: 2.69% | [LDL] Mean percentage CFB - 24 weeks results [5]: 6.13% | [LDL] Median percentage CFB - 24 weeks results [5]: 3.06% | [LDL] Median percentage CFB - 24 weeks results (50 mg q.d. non responders switching to 100 mg q.d. at week 12, week 16): 7.11% | [LDL] Median percentage CFB - 24 weeks results (50 mg q.d. non responders switching to 100 mg q.d. at week 12, week 20): −0.80% | [LDL] Median percentage CFB - 24 weeks results (50 mg q.d. non responders switching to 100 mg q.d. at week 12, week 24): 5.60% | [LDL] Mean percentage CFB - 24 weeks results (50 mg q.d. responders, week 1): −0.43% | [LDL] Median percentage CFB - 24 weeks results (50 mg q.d. responders, week 1): −0.29% | [LDL] Mean percentage CFB - 24 weeks results (50 mg q.d. responders, week 2): −2.56% | [LDL] Median percentage CFB - 24 weeks results (50 mg q.d. responders, week 2): −2.27% | [LDL] Mean percentage CFB - 24 weeks results (50 mg q.d. responders, week 4): 2.09% | [LDL] Median percentage CFB - 24 weeks results (50 mg q.d. responders, week 4): −1.14% | [LDL] Mean percentage CFB - 24 weeks results (50 mg q.d. responders, week 8): 6.10% | [LDL] Median percentage CFB - 24 weeks results (50 mg q.d. responders, week 8): 5.33% | [LDL] Mean percentage CFB - 24 weeks results (50 mg q.d. responders, week 12): 3.64% | [LDL] Median percentage CFB - 24 weeks results (50 mg q.d. responders, week 12): 0.69% | [LDL] Mean percentage CFB - 24 weeks results (50 mg q.d. responders, week 16): 7.12% | [LDL] Median percentage CFB - 24 weeks results (50 mg q.d. responders, week 16): 7.71% | [LDL] Mean percentage CFB - 24 weeks results (50 mg q.d. responders, week 20): 1.20% | [LDL] Median percentage CFB - 24 weeks results (50 mg q.d. responders, week 20): 3.91% | [LDL] Mean percentage CFB - 24 weeks results (50 mg q.d. responders, week 24): 1.97% | [LDL] Median percentage CFB - 24 weeks results (50 mg q.d. responders, week 24): −0.19% | [LDL] Mean percentage CFB - 12 weeks results (50 mg q.d., week 1): −0.40% | [LDL] Median percentage CFB - 12 weeks results (50 mg q.d., week 1): 0.18% | [LDL] Mean percentage CFB - 12 weeks results (50 mg q.d., week 2): −1.59% | [LDL] Median percentage CFB - 12 weeks results (50 mg q.d., week 2): −1.23% | [LDL] Mean percentage CFB - 12 weeks results (50 mg q.d., week 4): 2.97% | [LDL] Median percentage CFB - 12 weeks results (50 mg q.d., week 4): 0.76% | [LDL] Mean percentage CFB - 12 weeks results (50 mg q.d., week 8): 5.80% | [LDL] Median percentage CFB - 12 weeks results (50 mg q.d., week 8): 4.49% | [LDL] Mean percentage CFB - 12 weeks results (50 mg q.d., week 12): 4.19% | [LDL] Median percentage CFB - 12 weeks results (50 mg q.d., week 12): 1.14% | [LDL] Mean percentage CFB - 12 weeks results (100 mg q.d., week 1): 6.36% | [LDL] Mean percentage CFB - 24 weeks results (100 mg q.d., week 1): 6.36% | [LDL] Median percentage CFB - 12 weeks results (100 mg q.d., week 1): 1.97% | [LDL] Median percentage CFB - 24 weeks results (100 mg q.d., week 1): 1.97% | [LDL] Mean percentage CFB - 12 weeks results (100 mg q.d., week 2): 6.15% | [LDL] Mean percentage CFB - 24 weeks results (100 mg q.d., week 2): 6.15% | [LDL] Median percentage CFB - 24 weeks results (100 mg q.d., week 2): −1.82% | [LDL] Mean percentage CFB - 12 weeks results (100 mg q.d., week 4): 10.29% | [LDL] Mean percentage CFB - 24 weeks results (100 mg q.d., week 4): 10.29% | [LDL] Median percentage CFB - 12 weeks results (100 mg q.d., week 4): 5.08% | [LDL] Median percentage CFB - 24 weeks results (100 mg q.d., week 4): 5.08% | [LDL] Mean percentage CFB - 12 weeks results (100 mg q.d., week 8): 7.39% | [LDL] Mean percentage CFB - 24 weeks results (100 mg q.d., week 8): 7.39% | [LDL] Median percentage CFB - 12 weeks results (100 mg q.d., week 8): 5.34% | [LDL] Median percentage CFB - 24 weeks results (100 mg q.d., week 8): 5.34% | [LDL] Mean percentage CFB - 12 weeks results (100 mg q.d., week 12): 14.31% | [LDL] Mean percentage CFB - 24 weeks results (100 mg q.d., week 12): 14.31% | [LDL] Median percentage CFB - 12 weeks results (100 mg q.d., week 12): 5.78% | [LDL] Median percentage CFB - 24 weeks results (100 mg q.d., week 12): 5.78% | [LDL] Mean percentage CFB - 24 weeks results (100 mg q.d., week 16): 12.10% | [LDL] Median percentage CFB - 24 weeks results (100 mg q.d., week 16): 7.81% | [LDL] Mean percentage CFB - 24 weeks results (100 mg q.d., week 20): 12.84% | [LDL] Median percentage CFB - 24 weeks results (100 mg q.d., week 20): 7.74% | [LDL] Mean percentage CFB - 24 weeks results (100 mg q.d., week 24): 14.01% | [LDL] Median percentage CFB - 24 weeks results (100 mg q.d., week 24): 9.61% | [LDL] Mean percentage CFB - 12 weeks results (200 mg q.d., week 1): 8.06% | [LDL] Mean percentage CFB - 24 weeks results (200 mg q.d., week 1): 8.06% | [LDL] Median percentage CFB - 12 weeks results (200 mg q.d., week 1): 6.59% | [LDL] Median percentage CFB - 24 weeks results (200 mg q.d., week 1): 6.59% | [LDL] Mean percentage CFB - 12 weeks results (200 mg q.d., week 2): 8.39% | [LDL] Mean percentage CFB - 24 weeks results (200 mg q.d., week 2): 8.39% | [LDL] Median percentage CFB - 12 weeks results (200 mg q.d., week 2): 5.81% | [LDL] Median percentage CFB - 24 weeks results (200 mg q.d., week 2): 5.81% | [LDL] Mean percentage CFB - 12 weeks results (200 mg q.d., week 4): 9.99% | [LDL] Mean percentage CFB - 24 weeks results (200 mg q.d., week 4): 9.99% | [LDL] Median percentage CFB - 12 weeks results (200 mg q.d., week 4): 10.14% | [LDL] Median percentage CFB - 24 weeks results (200 mg q.d., week 4): 10.14% | [LDL] Mean percentage CFB - 12 weeks results (200 mg q.d., week 8): 9.80% | [LDL] Mean percentage CFB - 24 weeks results (200 mg q.d., week 8): 9.80% | [LDL] Median percentage CFB - 12 weeks results (200 mg q.d., week 8): 8.13% | [LDL] Median percentage CFB - 24 weeks results (200 mg q.d., week 8): 8.13% | [LDL] Mean percentage CFB - 12 weeks results (200 mg q.d., week 12): 16.80% | [LDL] Mean percentage CFB - 24 weeks results (200 mg q.d., week 12): 16.80% | [LDL] Median percentage CFB - 12 weeks results (200 mg q.d., week 12): 11.50% | [LDL] Median percentage CFB - 24 weeks results (200 mg q.d., week 12): 11.50% | [LDL] Mean percentage CFB - 24 weeks results (200 mg q.d., week 16): 12.24% | [LDL] Median percentage CFB - 24 weeks results (200 mg q.d., week 16): 9.19% | [LDL] Mean percentage CFB - 24 weeks results (200 mg q.d., week 20): 14.33% | [LDL] Median percentage CFB - 24 weeks results (200 mg q.d., week 20): 10.33% | [LDL] Median percentage CFB - 24 weeks results (200 mg q.d., week 24): 13.81% | [LDL] Mean CFB (50 mg q.d., week 1): 0.011 mmol/L | [LDL] Median CFB (50 mg q.d., week 1): 0.005 mmol/L | [LDL] Mean CFB (50 mg q.d., week 2): -0.057 mmol/L | [LDL] Median CFB (50 mg q.d., week 2): -0.040 mmol/L | [LDL] Mean CFB (50 mg q.d., week 4): 0.047 mmol/L | [LDL] Median CFB (50 mg q.d., week 4): 0.025 mmol/L | [LDL] Mean CFB (50 mg q.d., week 8): 0.142 mmol/L | [LDL] Median CFB (50 mg q.d., week 8): 0.130 mmol/L
